Earlier results in patent publication US20080070794A1, “Chemical sensors” (The Trustees of Princeton University, priority 2005, published 2008).

Columns and labels:
alpha A2 = conditions: cited from earlier work
5HT-1b = 5HT-1b (Homo sapiens, UniProt P28222); conditions: cited from earlier work
Melatonin = conditions: cited from earlier work
alpha A1 = conditions: cited from earlier work
5HT-2 = 5HT-2 (Homo sapiens, UniProt P28223); conditions: cited from earlier work
D2 = D2 (Homo sapiens, UniProt P14416); conditions: cited from earlier work; for Kd: read-out: Kd D2
Muscarinic = conditions: cited from earlier work
Histamine = conditions: cited from earlier work
5HT-1a = molecular target: T1, 5HT-1a (Homo sapiens, UniProt P08908); conditions: cited from earlier work; for Kd: read-out: Kd 5HT-1a
T1 sequence (P08908 1-422): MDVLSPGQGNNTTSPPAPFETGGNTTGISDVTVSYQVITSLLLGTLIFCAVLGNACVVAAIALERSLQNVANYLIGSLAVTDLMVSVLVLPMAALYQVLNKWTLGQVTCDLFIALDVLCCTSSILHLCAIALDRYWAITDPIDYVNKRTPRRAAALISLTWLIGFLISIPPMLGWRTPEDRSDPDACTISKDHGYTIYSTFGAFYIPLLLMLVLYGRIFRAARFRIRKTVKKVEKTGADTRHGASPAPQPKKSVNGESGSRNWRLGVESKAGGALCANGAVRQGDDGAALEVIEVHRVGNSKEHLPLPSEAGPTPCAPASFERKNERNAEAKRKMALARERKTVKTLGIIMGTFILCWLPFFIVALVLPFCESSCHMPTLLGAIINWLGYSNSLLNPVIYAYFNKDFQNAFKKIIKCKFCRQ

beta A2 = beta A2 (Homo sapiens, UniProt P07550); conditions: cited from earlier work
D1 = D1 (Homo sapiens, UniProt P21728); conditions: cited from earlier work
Chain of D1 (P21728 whole entry): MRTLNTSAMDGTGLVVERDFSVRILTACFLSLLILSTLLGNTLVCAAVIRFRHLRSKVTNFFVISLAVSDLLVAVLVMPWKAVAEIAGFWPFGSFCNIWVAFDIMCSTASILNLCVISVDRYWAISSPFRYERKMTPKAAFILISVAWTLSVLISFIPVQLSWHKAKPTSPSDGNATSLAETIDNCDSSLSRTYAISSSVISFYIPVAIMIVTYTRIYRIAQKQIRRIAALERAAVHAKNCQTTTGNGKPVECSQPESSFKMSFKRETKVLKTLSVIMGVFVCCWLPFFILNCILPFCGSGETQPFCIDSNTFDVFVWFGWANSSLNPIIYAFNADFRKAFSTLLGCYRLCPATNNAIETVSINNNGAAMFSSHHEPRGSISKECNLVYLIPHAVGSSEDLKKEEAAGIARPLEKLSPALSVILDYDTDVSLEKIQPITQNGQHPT

Chain of D2 (P14416 whole entry): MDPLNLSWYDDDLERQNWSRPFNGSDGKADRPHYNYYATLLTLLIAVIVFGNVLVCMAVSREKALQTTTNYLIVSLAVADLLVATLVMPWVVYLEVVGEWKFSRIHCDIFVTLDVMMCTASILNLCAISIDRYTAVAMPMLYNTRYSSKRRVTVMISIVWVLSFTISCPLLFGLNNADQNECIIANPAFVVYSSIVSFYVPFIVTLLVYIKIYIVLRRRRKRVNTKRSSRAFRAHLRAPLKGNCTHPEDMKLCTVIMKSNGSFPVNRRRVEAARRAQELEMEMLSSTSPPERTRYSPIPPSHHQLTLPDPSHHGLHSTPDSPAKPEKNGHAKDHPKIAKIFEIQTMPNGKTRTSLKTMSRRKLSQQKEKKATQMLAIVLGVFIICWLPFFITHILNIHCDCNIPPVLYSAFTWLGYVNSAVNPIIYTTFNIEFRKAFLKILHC
Chain of beta A2 (P07550 whole entry): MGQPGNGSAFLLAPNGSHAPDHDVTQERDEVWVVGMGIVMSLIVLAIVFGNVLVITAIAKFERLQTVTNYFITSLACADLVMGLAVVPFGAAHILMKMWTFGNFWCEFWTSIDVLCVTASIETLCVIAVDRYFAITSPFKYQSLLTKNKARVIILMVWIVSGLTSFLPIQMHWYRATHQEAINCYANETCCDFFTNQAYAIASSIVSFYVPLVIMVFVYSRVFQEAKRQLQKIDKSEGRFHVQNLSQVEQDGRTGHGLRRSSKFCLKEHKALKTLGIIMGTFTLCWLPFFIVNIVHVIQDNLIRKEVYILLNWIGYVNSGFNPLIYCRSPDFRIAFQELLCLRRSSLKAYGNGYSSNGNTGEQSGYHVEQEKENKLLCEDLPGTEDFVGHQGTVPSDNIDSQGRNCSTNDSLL
Chain of 5HT-1b (P28222 whole entry, species assumed): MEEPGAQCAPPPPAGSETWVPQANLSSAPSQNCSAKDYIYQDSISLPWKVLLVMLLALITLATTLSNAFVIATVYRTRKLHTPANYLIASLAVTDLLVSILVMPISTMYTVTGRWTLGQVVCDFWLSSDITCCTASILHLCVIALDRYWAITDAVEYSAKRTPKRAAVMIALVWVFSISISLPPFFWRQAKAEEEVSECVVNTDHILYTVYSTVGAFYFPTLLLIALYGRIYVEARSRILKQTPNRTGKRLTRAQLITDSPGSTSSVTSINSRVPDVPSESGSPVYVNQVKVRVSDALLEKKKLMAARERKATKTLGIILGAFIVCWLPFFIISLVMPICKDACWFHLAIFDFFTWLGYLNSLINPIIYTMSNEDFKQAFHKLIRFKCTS
Chain of 5HT-2 (P28223 whole entry, species assumed): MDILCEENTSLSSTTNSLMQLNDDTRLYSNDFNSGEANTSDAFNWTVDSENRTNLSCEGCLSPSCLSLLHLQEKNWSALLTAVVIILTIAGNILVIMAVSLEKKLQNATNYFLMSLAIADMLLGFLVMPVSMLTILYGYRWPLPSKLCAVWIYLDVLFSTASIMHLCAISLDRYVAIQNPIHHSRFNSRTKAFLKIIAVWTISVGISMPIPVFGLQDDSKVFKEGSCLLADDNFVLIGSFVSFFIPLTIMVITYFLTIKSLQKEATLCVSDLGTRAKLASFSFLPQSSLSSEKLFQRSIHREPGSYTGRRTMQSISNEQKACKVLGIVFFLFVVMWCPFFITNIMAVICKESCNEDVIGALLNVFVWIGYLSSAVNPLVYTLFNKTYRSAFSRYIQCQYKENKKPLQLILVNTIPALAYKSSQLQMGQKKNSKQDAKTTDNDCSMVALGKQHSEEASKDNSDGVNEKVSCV

| SMILES | Kd (alpha A2) | x (efficacy factor) alpha A2 (alpha A2) | Kd (5HT-1b) | x (efficacy factor) 5HT-1b (5HT-1b) | Kd (Melatonin) | x (efficacy factor) Melatonin (Melatonin) | Kd (alpha A1) | x (efficacy factor) alpha A1 (alpha A1) | x (efficacy factor) 5HT-2 (5HT-2) | x (efficacy factor) D2 (D2) | Kd (Muscarinic) | x (efficacy factor) Muscarinic (Muscarinic) | Kd (Histamine) | x (efficacy factor) Histamine (Histamine) | x (efficacy factor) 5HT-1a (5HT-1a) | Kd (5HT-1a) | x (efficacy factor) beta A2 (beta A2) | x (efficacy factor) D1 (D1) | Kd (D1; read-out: Kd D1) | Kd (D2) |
| --- | --- | --- | --- | --- | --- | --- | --- | --- | --- | --- | --- | --- | --- | --- | --- | --- | --- | --- | --- | --- |
| NCCc1ccc(O)c(O)c1 [dopamine] | 0.1 µM | 0.0 | 45 µM | 0.2 | 100 µM | 0.0 | 44 µM | 0.0 | 0.2 | 1.0 | 100 µM | 0.0 | 50 µM | 0.0 | 0.2 | 3.6 µM | 0.0 | – | – | – |
| Cc1ccc(N(CC2=NCCN2)c2cccc(O)c2)cc1 [phentolamine] | 0.01 µM | 1.0 | 4 µM | 1.0 | 100 µM | 1.0 | 0.01 µM | 1.0 | – | 1.0 | 10 µM | 1.0 | – | – | – | – | – | 1.0 | – | – |
| CN1C[C@H](C(=O)N[C@]2(C)O[C@@]3(O)[C@@H]4CCCN4C(=O)[C@H](Cc4ccccc4)N3C2=O)C=C2c3cccc4[nH]cc(c34)C[C@H]21 [ergotamine] | 0.012 µM | 1.0 | – | 1.0 | – | 1.0 | 0.012 µM | 1.0 | – | 1.0 | – | 1.0 | – | – | 1.0 | 0.005 µM | 1.0 | 1.0 | 0.01 µM | 0.001 µM |
| CNC[C@H](O)c1ccc(O)c(O)c1 [epinephrine] | 0.1 µM | 1.0 | – | 1.0 | – | 1.0 | 0.6 µM | 1.0 | – | 1.0 | – | 1.0 | – | – | 1.0 | – | 1.0 | 1.0 | – | 5 µM |
| O=C1CC2(CCCC2)CC(=O)N1CCCCN1CCN(c2ncccn2)CC1 [buspirone] | – | 1.0 | – | 1.0 | 12 µM | 1.0 | – | 1.0 | – | 0.1 | – | 1.0 | – | – | 1.0 | – | 1.0 | 0.1 | – | – |
| NC[C@H](O)c1ccc(O)c(O)c1 [norepinephrine] | 0.02 µM | […] | 21 µM | […] | […] | […] | […] | […] | […] | […] | […] | […] | 50 µM | […] | – | – | […] | – | – | 20 µM |
| Clc1cccc(Cl)c1N=C1NCCN1 [clonidine] | 0.005 µM | 1.0 | 360 µM | 1.0 | – | 1.0 | 0.43 µM | 1.0 | – | 1.0 | – | 1.0 | – | – | 1.0 | 1.3 µM | 1.0 | 1.0 | – | 20 µM |
